The target in this experiment is HLA B*1503 (Homo sapiens, UniProt P01889, A329T/A93T/A95T/C349S/D201E/D98Y/E187L/E204Q/K202T/N87E/Q94N/R155S/R180L/S121R/S35A/V306I/V36M/Y140S/Y91S). The experiment in a line: biochemical. The experiment is classed as binding.

Where a SMILES comes first, the peptide text is derived from it.

28 compounds from publication PMC2248166, “Quantitative peptide binding motifs for 19 human and mouse MHC class I molecules derived using positional scanning combinatorial peptide libraries” (Immunome Research, 2008) can be followed below.

The IC50 is the midpoint of a concentration-inhibition curve. Lower therefore signals inhibition by little substance.

`CC[C@H](C)[C@H](NC(=O)[C@H](CO)NC(=O)[C@@H](NC(=O)[C@H](Cc1ccccc1)NC(=O)CNC(=O)[C@@H](NC(=O)[C@@H](NC(=O)[C@H](CCCCN)NC(=O)[C@@H](N)CCCCN)C(C)C)[C@@H](C)CC)C(C)C)C(=O)O` [3102.1208] (H-KKVIGFVSI-OH) displayed an IC50 of 7.5 nM.
The value for `CSCC[C@H](N)C(=O)N[C@@H](CCCCN)C(=O)N[C@@H](Cc1ccc(O)cc1)C(=O)N[C@@H](CS)C(=O)N[C@@H](CO)C(=O)N[C@@H](Cc1ccc(O)cc1)C(=O)N[C@@H](CCC(N)=O)C(=O)N[C@@H](CO)C(=O)N[C@@H](Cc1ccccc1)C(=O)O` [3102.1287] (H-MKYCSYQSF-OH) was 1.6 nM.
The value for `CC(C)C[C@H](NC(=O)[C@@H](N)CC(N)=O)C(=O)N[C@@H](Cc1ccc(O)cc1)C(=O)N[C@@H](Cc1ccccc1)C(=O)N[C@@H](CS)C(=O)N[C@H](C(=O)N[C@@H](CCCCN)C(=O)N[C@@H](CO)C(=O)N[C@@H](Cc1ccccc1)C(=O)O)[C@@H](C)O` [3102.1057] (H-NLYFCTKSF-OH) was 4.3 nM; that for `CSCC[C@H](NC(=O)[C@H](CCCCN)NC(=O)[C@@H](N)CCCCN)C(=O)N[C@H](C(=O)N[C@@H](CS)C(=O)NCC(=O)N[C@@H](CCC(N)=O)C(=O)N1CCC[C@H]1C(=O)N[C@@H](CC(C)C)C(=O)O)[C@@H](C)O` [3102.1121] (H-KKMTCGQPL-OH) was 1.5 nM.
With `CC[C@H](C)[C@H](NC(=O)[C@H](CCSC)NC(=O)[C@H](CC(C)C)NC(=O)[C@@H]1CCCN1C(=O)[C@H](CCCNC(=N)N)NC(=O)[C@H](Cc1ccccc1)NC(=O)[C@H](CCCCN)NC(=O)[C@@H](N)CCCCN)C(=O)N[C@@H](Cc1ccccc1)C(=O)O` [3102.1138] (H-KKFRPLMIF-OH), the 50% inhibitory concentration (IC50) turned out to be 0.17 nM.
The value for `CC(C)C[C@H](NC(=O)[C@H](Cc1ccccc1)NC(=O)[C@H](CCCNC(=N)N)NC(=O)[C@@H](N)CC(C)C)C(=O)N[C@@H](CCC(=O)O)C(=O)N[C@@H](CCCCN)C(=O)N[C@H](C(=O)N[C@@H](CO)C(=O)N[C@@H](Cc1ccccc1)C(=O)O)[C@@H](C)O` [3102.1139] (H-LRFLEKTSF-OH) was 2.2 nM; that for `CC[C@H](C)[C@H](NC(=O)[C@@H](NC(=O)[C@H](CCSC)NC(=O)[C@@H](N)CO)C(C)C)C(=O)N[C@@H](CO)C(=O)N[C@@H](CC(C)C)C(=O)N[C@@H](CC(C)C)C(=O)N[C@@H](CO)C(=O)N[C@@H](CCSC)C(=O)O` [3102.1140] (H-SMVISLLSM-OH) was 8 nM; that for `CSCC[C@H](NC(=O)[C@H](CC(C)C)NC(=O)[C@H](CO)NC(=O)[C@H](CC(N)=O)NC(=O)[C@H](CC(N)=O)NC(=O)[C@H](CC(C)C)NC(=O)[C@@H](N)CS)C(=O)N[C@@H](CO)C(=O)N[C@@H](Cc1ccccc1)C(=O)O` [3102.1050] (H-CLNNSLMSF-OH) was 0.77 nM.
`CC(C)[C@H](NC(=O)[C@H](Cc1ccc(O)cc1)NC(=O)[C@H](CCC(N)=O)NC(=O)[C@@H](N)Cc1ccccc1)C(=O)N[C@@H](CO)C(=O)N[C@@H](Cc1ccc(O)cc1)C(=O)N[C@@H](CO)C(=O)N[C@@H](CC(N)=O)C(=O)N[C@@H](Cc1ccccc1)C(=O)O` [3102.1128] (H-FQYVSYSNF-OH) gave an IC50 of 0.26 nM.
With `CC[C@H](C)[C@H](N)C(=O)N[C@@H](CO)C(=O)N[C@@H](CO)C(=O)N[C@@H](CCCNC(=N)N)C(=O)N[C@@H](CCC(=O)O)C(=O)N[C@@H](CO)C(=O)N[C@H](C(=O)N[C@@H](CO)C(=O)N[C@@H](Cc1ccccc1)C(=O)O)C(C)C` [3102.1068] (H-ISSRESVSF-OH), half-maximal inhibition (IC50) required 12 nM.
Regarding `CC[C@H](C)[C@H](NC(=O)[C@H](CCC(N)=O)NC(=O)[C@H](CC(N)=O)NC(=O)[C@H](CC(=O)O)NC(=O)[C@H](CCCNC(=N)N)NC(=O)[C@H](C)NC(=O)[C@@H](N)Cc1ccccc1)C(=O)N[C@@H](CO)C(=O)N[C@@H](Cc1ccccc1)C(=O)O` [3102.1132] (H-FARDNQISF-OH), half-maximal inhibition (IC50) required 0.2 nM.
The compound `CC[C@H](C)[C@H](N)C(=O)N[C@@H](CCSC)C(=O)N[C@H](C(=O)N[C@@H](CO)C(=O)N[C@@H](CCC(=O)O)C(=O)N[C@@H](Cc1c[nH]cn1)C(=O)N[C@@H](Cc1ccccc1)C(=O)N[C@@H](CO)C(=O)N[C@@H](CC(C)C)C(=O)O)C(C)C` [3102.1318] (H-IMVSEHFSL-OH) came in with an IC50 of 5.5 nM.
The value for `CC[C@H](C)[C@H](NC(=O)[C@@H](NC(=O)[C@H](Cc1ccccc1)NC(=O)[C@H](CCSC)NC(=O)[C@@H](NC(=O)[C@H](CCCCN)NC(=O)[C@@H](N)[C@@H](C)O)C(C)C)C(C)C)C(=O)N[C@@H](CCCNC(=N)N)C(=O)N[C@@H](Cc1ccccc1)C(=O)O` [3102.1199] (H-TKVMFVIRF-OH) was 31 nM; that for `CC[C@H](C)[C@H](N)C(=O)N[C@@H](Cc1c[nH]cn1)C(=O)N[C@H](C(=O)N1CCC[C@H]1C(=O)N[C@@H](CCC(N)=O)C(=O)N[C@@H](CO)C(=O)N[C@@H](CCC(N)=O)C(=O)N[C@@H](CC(C)C)C(=O)N[C@@H](Cc1ccccc1)C(=O)O)[C@@H](C)CC` [3102.1155] (H-IHIPQSQLF-OH) was 5.5 nM; that for `CC(C)C[C@H](NC(=O)[C@H](CC(C)C)NC(=O)[C@H](CCCNC(=N)N)NC(=O)[C@H](CCCNC(=N)N)NC(=O)[C@@H](NC(=O)[C@H](Cc1c[nH]cn1)NC(=O)[C@@H](N)Cc1ccccc1)C(C)C)C(=O)N[C@@H](CCCCN)C(=O)N[C@@H](Cc1ccccc1)C(=O)O` [3102.1241] (H-FHVRRLLKF-OH) was 21 nM.
As for `CC(C)C[C@H](NC(=O)[C@H](Cc1ccc(O)cc1)NC(=O)[C@H](CCC(N)=O)NC(=O)[C@H](CO)NC(=O)[C@H](CCCNC(=N)N)NC(=O)[C@H](CC(N)=O)NC(=O)[C@H](CCC(N)=O)NC(=O)[C@@H](N)CCCNC(=N)N)C(=O)N[C@@H](Cc1ccccc1)C(=O)O` [3102.1112] (H-RQNRSQYLF-OH), the figure is 0.14 nM; as for `CC[C@H](C)[C@H](N)C(=O)N[C@@H](CCC(N)=O)C(=O)N[C@@H](CCCNC(=N)N)C(=O)N[C@H](C(=O)N[C@@H](Cc1ccc(O)cc1)C(=O)N[C@@H](CO)C(=O)N[C@@H](CO)C(=O)N[C@@H](CO)C(=O)N[C@H](C(=O)O)[C@@H](C)CC)[C@@H](C)O` [3102.1209] (H-IQRTYSSSI-OH), 0.83 nM; as for `CSCC[C@H](NC(=O)[C@H](CCCCN)NC(=O)[C@H](CCC(N)=O)NC(=O)[C@@H](N)CCCCN)C(=O)N[C@@H](Cc1ccccc1)C(=O)N[C@@H](CO)C(=O)N[C@@H](CC(N)=O)C(=O)N[C@@H](CC(N)=O)C(=O)N[C@H](C(=O)O)C(C)C` [3102.1248] (H-KQKMFSNNV-OH), 19 nM.
`CC(C)C[C@H](NC(=O)[C@@H](N)Cc1ccccc1)C(=O)N[C@@H](CO)C(=O)N[C@@H](CC(N)=O)C(=O)N[C@@H](CS)C(=O)N[C@@H](CCC(=O)O)C(=O)N[C@@H](CCCCN)C(=O)N[C@@H](CCC(N)=O)C(=O)N[C@@H](Cc1ccccc1)C(=O)O` [3102.1206] (H-FLSNCEKQF-OH) gave an IC50 of 21 nM.
With `CC[C@H](C)[C@H](N)C(=O)N[C@@H](CCSC)C(=O)N[C@@H](C)C(=O)N[C@@H](CC(C)C)C(=O)N[C@H](C(=O)N[C@H](C(=O)N[C@@H](CO)C(=O)N[C@H](C(=O)N[C@@H](Cc1ccccc1)C(=O)O)[C@@H](C)CC)C(C)C)[C@@H](C)CC` [3102.1093] (H-IMALIVSIF-OH), the IC50 is 4.5 nM.
As for `CC(C)C[C@H](NC(=O)[C@H](CO)NC(=O)[C@H](CC(C)C)NC(=O)CNC(=O)[C@H](CS)NC(=O)[C@H](CO)NC(=O)[C@H](Cc1ccccc1)NC(=O)[C@H](CCCCN)NC(=O)[C@@H](N)Cc1ccc(O)cc1)C(=O)O` [3102.1230] (H-YKFSCGLSL-OH), the figure is 0.13 nM; as for `CC[C@H](C)[C@H](NC(=O)[C@H](CC(N)=O)NC(=O)[C@@H](NC(=O)[C@H](C)NC(=O)[C@H](CS)NC(=O)[C@H](CCCNC(=N)N)NC(=O)[C@@H](NC(=O)[C@@H](N)CO)[C@@H](C)CC)[C@@H](C)O)C(=O)N[C@@H](Cc1ccccc1)C(=O)O` [3102.1321] (H-SIRCATNIF-OH), 20 nM; as for `CC[C@H](C)[C@H](N)C(=O)N[C@@H](CCCCN)C(=O)N[C@@H](Cc1ccc(O)cc1)C(=O)N[C@@H](CCSC)C(=O)N[C@H](C(=O)NCC(=O)N[C@@H](CC(N)=O)C(=O)N[C@@H](Cc1ccccc1)C(=O)N[C@@H](CCSC)C(=O)O)[C@@H](C)CC` [3102.1120] (H-IKYMIGNFM-OH), 2.2 nM.
As for `CC(C)C[C@H](NC(=O)[C@H](CCCCN)NC(=O)[C@H](CC(N)=O)NC(=O)[C@@H](NC(=O)[C@H](Cc1ccccc1)NC(=O)[C@H](CS)NC(=O)[C@@H](NC(=O)[C@H](CCCCN)NC(=O)[C@@H](N)CCCCN)C(C)C)C(C)C)C(=O)O` [3102.1086] (H-KKVCFVNKL-OH), the figure is 4.5 nM; as for `CC[C@H](C)[C@H](NC(=O)[C@H](CO)NC(=O)[C@@H](N)Cc1ccccc1)C(=O)N[C@@H](CC(C)C)C(=O)N[C@@H](Cc1ccccc1)C(=O)N[C@@H](CO)C(=O)N[C@@H](CC(N)=O)C(=O)N[C@@H](CC(N)=O)C(=O)N[C@@H](Cc1ccccc1)C(=O)O` [3102.1156] (H-FSILFSNNF-OH), 30 nM.
Take `CC[C@H](C)[C@H](N)C(=O)N[C@@H](CCSC)C(=O)N[C@@H](CO)C(=O)N[C@@H](CC(C)C)C(=O)N[C@@H](Cc1ccccc1)C(=O)N[C@@H](CO)C(=O)N[C@H](C(=O)N[C@@H](CO)C(=O)N[C@@H](C)C(=O)O)[C@@H](C)O` [3102.1063] (H-IMSLFSTSA-OH): 7.7 nM corresponded to half-maximal inhibition (IC50).
`CC(C)C[C@H](NC(=O)[C@H](Cc1ccccc1)NC(=O)[C@@H]1CCCN1C(=O)[C@H](CCCNC(=N)N)NC(=O)[C@@H](NC(=O)[C@H](CC(C)C)NC(=O)[C@@H](N)CCCNC(=N)N)C(C)C)C(=O)N[C@H](C(=O)N[C@H](C(=O)O)C(C)C)C(C)C` [3102.1135] (H-RLVRPFLVV-OH): the midpoint of inhibition, the IC50, lay at 16 nM.
`CC(C)[C@H](N)C(=O)N[C@@H](CCCCN)C(=O)N[C@H](C(=O)N[C@@H](CCCCN)C(=O)N[C@@H](CCC(=O)O)C(=O)N[C@@H](CCC(=O)O)C(=O)N[C@@H](CC(N)=O)C(=O)N[C@H](C(=O)N[C@@H](Cc1ccccc1)C(=O)O)[C@@H](C)O)C(C)C` [3102.1122] (H-VKVKEENTF-OH) displayed an IC50 of 0.42 nM.
